Measured values taken from paper PMC9505425, “Targeting of the Mitochondrial TET1 Protein by Pyrrolo[3,2-b]pyrrole Chelators” (International Journal of Molecular Sciences, 2022).
Values joined by “and” are separate entries in the source; they are usually repeats but may differ in a detail not shown here. Identical values can stand only once.

What was measured:
[1] = MTT cytotoxicity assay, HF-P4; assay type: cell-based, human; conditions: human, HF-P4 normal human dermal fibroblasts, repeats, read-out: Cell viability %
Method: (§1) The effects of the tested compounds 1–6 on HF-P4, U-118 MG, H1299, BT-20, and Caov-3 cell lines were evaluated by the MTT assay during 48 h treatment (Table 2 and Tables S2–S31). In all tested compounds, we recognized a difference in cytotoxicity between healthy cells (HF-P4) and cancer cell lines (BT-20, Caov-3, and H-1299). […] In the case of ovarian cancer, the authors discovered oncogenic and poor prognosis roles of TET1 in epithelial ovarian carcinoma (EOC). TET1 is believed to demethylate the epigenome and activate numerous oncogenic pathways in EOC. The aforementioned study presents a new mechanism where TET1 contributes to tumor development through collaboration with CK2α [21]. The overexpression of the TET1 protein was also found in triple negative breast cancer and was associated with an activation of PI3K/mTOR pathway and decreased overall survival.
(§2) A human dermal fibroblast cell line was used for intracellular localization and cytotoxicity assay (MTT). Human fibroblast cells HF-P4 (human fibroblasts—patient 4) are normal dermal fibroblasts, which were obtained from the residual skin of a healthy patient who underwent plastic surgery (with informed consent of the patient). HF-P4 cell lines were obtained from the Department of Plastic Surgery, Third Faculty of Medicine, Charles University and University Hospital Královské Vinohrady, Prague, Czech Republic, as described by Szabo et al., 2011, and Dvořánková et al., 2019 [88, 89], and have been processed in accordance with the relevant local ethics committee and the Declaration of Helsinki protection of patients’ rights and benefits with written and signed informed consent of each patient. Cells were cultivated under standard conditions in Dulbecco’s modified Eagle’s medium (ATCC, Manassas, VA, USA), supplemented with 10% FBS and streptomycin (100 μg/mL) at 37 °C at a 5% CO2 atmosphere.
(§3) For the cytotoxicity assay, we used the following cell lines: human glioblastoma cell line U118-MG, human mammary gland/breast cell line BT-20, human ovary adenocarcinoma cell line Caov-3, and non-small-cell lung carcinoma H-1299. As previously mentioned, these cell lines contain a high level of the TET1 protein, which corresponds to a lower overall survival. In addition to these cell cultures, we used the human dermal fibroblast cell line HF-P4 as a healthy control. Determination of cytotoxicity was performed using the MTT [3-(4,5-dimethylthiazol-2-yl)-2,5-diphenyltetrazolium bromide] colorimetric assay. Viable cells from each cell line were cultured in 96-well plates (VWR, Stříbrná Skalice, Czech Republic) at a density of 1.0 × 10^5 cells per well and allowed to grow for 24 h in 200 μL of recommended medium. After a 1-day incubation, the medium was replaced with solutions of compounds 1–6 at concentration ranges of 0.1–20 μM. Each concentration was measured four times within one test, and the entire test was repeated three times. Tested compounds 1–6 were dissolved in DMSO and then diluted with corresponding medium to a final volume of 200 μL (maximum 1% DMSO). After 48 h exposure, cells were treated with 175 μL of MTT solution (P-LAB, Prague, Czech Republic) for 2 h. In the next step, MTT solution was removed, and 125 μL of DMSO (Penta, Prague, Czech Republic) was added to solubilize dark crystals of formazan formed in intact cells, and absorbance was measured at 570 nm by the enzyme-linked immunoabsorbent assay reader Infinite® 200 PRO (Tecan, Männedorf, Switzerland). The final DMSO concentration was smaller than 1% (v/v). The absorbance of untreated cells was considered 100%, and IC50 values were calculated by the GraphPad Prism 8 software. As a parameter for cytotoxicity, we used a concentration that inhibits 50% of cell growth (IC50).

HF-P4 cells = experiment: MTT cytotoxicity assay, HF-P4; assay type: cell-based, human; conditions: 48 h; for Cell viability %: repeats
Method: as §1, §2, §3

H-1299 cells = experiment: MTT cytotoxicity assay, H-1299; assay type: cell-based, human; conditions: Homo sapiens
Method: as §1
(§4) A human glioblastoma cell line (U118-MG) and a human non-small-cell lung carcinoma cell line (H1299) were used for the cytotoxicity assay (MTT). Both cell lines were generously supplied by Dr. M. Masařik, PhD, Department of Pathological physiology, Masaryk University, Czech Republic. U118-MG cells were cultivated under standard conditions in Dulbecco’s modified Eagle’s medium (ATCC, Manassas, VA, USA) supplemented with 10% FBS and streptomycin (100 μg/mL) at 37 °C at a 5% CO2 atmosphere. H1299 cells were cultivated under standard conditions in RPMI 1640 (BioTech, Prague, Czech Republic) medium supplemented with 10% FBS and streptomycin (100 μg/mL) at 37 °C at a 5% CO2 atmosphere.
as §3

U-118 MG cells = experiment: MTT cytotoxicity assay, U-118 MG; assay type: cell-based, human; conditions: 48 h
Method: as §1, §4, §3

- melting point: 337 to 338 °C
Compound: Cc1ccc(-n2c(-c3ccc(C(=O)N/N=C/c4cc(F)ccc4O)cc3)cc3c2cc(-c2ccc(C(=O)N/N=C/c4cc(F)ccc4O)cc2)n3-c2ccc(C)cc2)cc1 [Compound 3]
- viability at 48 h, 0.1 µM ([1]; HF-P4, 100 nM): 95.8%
- viability at 48 h, 0.5 µM ([1]; HF-P4, 500 nM): 99.9%
- viability at 48 h, 0.75 µM ([1]; HF-P4, 750 nM): 107%
- viability at 48 h, 1 µM ([1]; HF-P4, 1 uM): 100%
- viability at 48 h, 2.5 µM ([1]; HF-P4, 2.5 uM): 87.1%
- viability at 48 h, 5 µM ([1]; HF-P4, 5 uM): 85.8%
- viability at 48 h, 7.5 µM ([1]; HF-P4, 7.5 uM): 78.7%
- viability at 48 h, 10 µM ([1]; HF-P4, 10 uM): 82.6%
- viability at 48 h, 15 µM ([1]; HF-P4, 15 uM): 65.6%
- viability at 48 h, 20 µM ([1]; HF-P4, 20 uM): 59%
- Cell viability % (HF-P4 cells; HF-P4, 100 nM, 0.1 µM): 96.12% and 98.08%
- Cell viability % (HF-P4 cells; HF-P4, 500 nM, 0.5 µM): 100.1756% and 103.312%
- Cell viability % (HF-P4 cells; HF-P4, 750 nM, 0.75 µM): 98.1566% and 91.216%
- Cell viability % (HF-P4 cells; HF-P4, 1 uM, 1 µM): 97.13% and 98.88%
- Cell viability % (HF-P4 cells; HF-P4, 2.5 uM, 2.5 µM): 92.78% and 93.78%
- Cell viability % (HF-P4 cells; HF-P4, 5 uM, 5 µM): 90.27% and 73.392%
- Cell viability % (HF-P4 cells; HF-P4, 7.5 uM, 7.5 µM): 83.18% and 77.088%
- Cell viability % (HF-P4 cells; HF-P4, 10 uM, 10 µM): 74.37% and 72.544%
- Cell viability % (HF-P4 cells; HF-P4, 15 uM, 15 µM): 66.4% and 65.2%
- Cell viability % (HF-P4 cells; HF-P4, 20 uM, 20 µM): 62.78% and 65.696%
- IC50 (HF-P4 cells; Homo sapiens, MTT): > 20 µM
- viability at 2.5 µM (H-1299 cells; NCI-H1299, 48 h, H-1299, 2.5 uM, repeats, read-out: Cell viability %): 124%
- viability at 5 µM (H-1299 cells; NCI-H1299, 48 h, H-1299, 5 uM, repeats, read-out: Cell viability %): 85.7%
- viability at 10 µM (H-1299 cells; NCI-H1299, 48 h, H-1299, 10 uM, repeats, read-out: Cell viability %): 47.9%
- viability at 15 µM (H-1299 cells; NCI-H1299, 48 h, H-1299, 15 uM, repeats, read-out: Cell viability %): 58.9%
- viability at 20 µM (H-1299 cells; NCI-H1299, 48 h, H-1299, 20 uM, repeats, read-out: Cell viability %): 31.4%
- IC50 (H-1299 cells; NCI-H1299, MTT, 48 h): 10.6 µM
- viability at 0.1 µM (U-118 MG cells; Homo sapiens, U-118-MG, U-118 MG, 100 nM, repeats, read-out: Cell viability %): 90.9%
- viability at 0.75 µM (U-118 MG cells; Homo sapiens, U-118-MG, U-118 MG, 750 nM, repeats, read-out: Cell viability %): 70.2%
- viability at 1 µM (U-118 MG cells; Homo sapiens, U-118-MG, U-118 MG, 1 uM, repeats, read-out: Cell viability %): 75.9%
- viability at 2.5 µM (U-118 MG cells; Homo sapiens, U-118-MG, U-118 MG, 2.5 uM, repeats, read-out: Cell viability %): 64.7%
- viability at 5 µM (U-118 MG cells; Homo sapiens, U-118-MG, U-118 MG, 5 uM, repeats, read-out: Cell viability %): 57.1%
- viability at 7.5 µM (U-118 MG cells; Homo sapiens, U-118-MG, U-118 MG, 7.5 uM, repeats, read-out: Cell viability %): 48.3%
- viability at 10 µM (U-118 MG cells; Homo sapiens, U-118-MG, U-118 MG, 10 uM, repeats, read-out: Cell viability %): 45.6%
- viability at 15 µM (U-118 MG cells; Homo sapiens, U-118-MG, U-118 MG, 15 uM, repeats, read-out: Cell viability %): 42.6%
- viability at 20 µM (U-118 MG cells; Homo sapiens, U-118-MG, U-118 MG, 20 uM, repeats, read-out: Cell viability %): 35.1%
- IC50 (U-118 MG cells; Homo sapiens, U-118-MG, MTT): 19.5 µM
- Cell viability % (U-118 MG cells; U-118 MG, 100 nM, repeats, 0.1 µM): 99.65% and 109.711%
- Cell viability % (U-118 MG cells; U-118 MG, 500 nM, repeats, 0.5 µM): 87.97% and 59.47% and 56.29%
- Cell viability % (U-118 MG cells; U-118 MG, 750 nM, repeats, 0.75 µM): 72.44% and 70.85%
- Cell viability % (U-118 MG cells; U-118 MG, 1 uM, repeats): 71.04% and 66.44%
- Cell viability % (U-118 MG cells; U-118 MG, 2.5 uM, repeats): 61.47% and 71.58%
- Cell viability % (U-118 MG cells; U-118 MG, 5 uM, repeats): 68.44% and 68.48%
- Cell viability % (U-118 MG cells; U-118 MG, 7.5 uM, repeats): 52.95% and 55.16%
- Cell viability % (U-118 MG cells; U-118 MG, 10 uM, repeats): 53.29% and 53%
- Cell viability % (U-118 MG cells; U-118 MG, 15 uM, repeats): 46.07% and 47.09%
- Cell viability % (U-118 MG cells; U-118 MG, 20 uM, repeats): 30.47% and 32.82%
